Reference: publication PMC7249060, “The Antiproliferative Effects of Flavonoid MAO Inhibitors on Prostate Cancer Cells” (Molecules, 2020)

How the values were obtained:
hMAO-A = molecular target: T1, hMAO-A (Homo sapiens, UniProt P21397); assay: MAO-Glow inhibitory potency (IC50) and relative selectivity; type: biochemical; settings: for MAO isozyme selectivity: comparison of hMAO-A and hMAO-B IC50s; for IC50: mean ± SEM, at least two experiments, LDS 40 μM; for hMAO-A relative selectivity (RSA): RSA = hMAO-B IC50/hMAO-A IC50
T1 construct: purchased Sigma-Aldrich Co. (St. Louis, MO, USA)
T1 sequence (P21397 1-527): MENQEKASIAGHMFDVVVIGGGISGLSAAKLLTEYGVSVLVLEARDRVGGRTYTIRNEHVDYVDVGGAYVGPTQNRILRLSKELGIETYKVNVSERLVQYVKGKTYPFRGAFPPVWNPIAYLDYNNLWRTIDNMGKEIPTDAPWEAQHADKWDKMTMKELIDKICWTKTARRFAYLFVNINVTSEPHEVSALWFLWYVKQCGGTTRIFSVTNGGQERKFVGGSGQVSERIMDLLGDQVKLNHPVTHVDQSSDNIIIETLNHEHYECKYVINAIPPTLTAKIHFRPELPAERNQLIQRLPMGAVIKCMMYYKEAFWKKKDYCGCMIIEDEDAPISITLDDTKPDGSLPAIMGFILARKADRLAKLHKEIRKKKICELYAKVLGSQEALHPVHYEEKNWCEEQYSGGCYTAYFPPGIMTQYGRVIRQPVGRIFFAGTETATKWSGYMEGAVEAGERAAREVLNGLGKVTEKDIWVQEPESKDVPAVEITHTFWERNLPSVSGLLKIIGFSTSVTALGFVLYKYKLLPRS
Method: (§1) The inhibitory effects of the synthesized KKRs of hMAO-A and B were tested by measuring the decrease in arbitrary light units (ALU) signal produced by the optimized isozymes using the MAO-Glow™ Assay at 37 °C. In this assay, DMSO stock for each KKR compound was diluted with a reaction buffer of pH 7.4 to make a 4X working solution for a maximum final concentration of 100 μM and ≤1% DMSO. The experiments were run in the absence and presence of 4X the miscellaneous standards of MAO-BIs (DEP, PARG, and SAF) and MAO-AIs (PIRL and CLORG), with similar concentrations. In white opaque 96-well microplates, 12.5 μL of each compound was plated at RT and was followed by 25 μL of 2X cold hMAO-A or hMAO-B, for a final concentration of 0.44 U/mL. A related buffer substituted each isozyme to make the blank wells and substituted each compound to make the negative control wells. Following this, we added 12.5 μL of 4X LDS to make a final substrate concentration of 40- and 4-μM for hMAO-A and hMAO-B, respectively. All screen plates were incubated at 37 °C for 60 min. The plates of 50 μL/well were then taken out from the incubator, and their reactions were stopped by an equal volume of 50 μL of reporter luciferin detection reagent (RLDR). After 30 min, the luminescence signals for all plates were read on a Synergy HTX Multi-reader from Bio-Tek (Winooski, VT, USA).
(§2) The experiments were performed in the presence and absence of the standard PILR. In white opaque 96-well plates, each KKR compound was serially diluted with a reaction buffer of pH 7.4 at the highest possible maximum final concentration, and the least used DMSO (<2%). In blank wells, the related reaction buffer substituted the isozyme. In negative control wells, the reaction buffer substituted each compound concentration. Then, the procedure was carried out as mentioned above (Section 4.2.2), and the reaction was detected on the Bio-Tek Synergy HTX Multi-Reader. The IC50 of each KKR on both isozymes was determined and subsequently the RSA and RSB was calculated.
(§3) Statistical analyses were performed using the GraphPad Prism program (version 6.07 for Windows) from the GraphPad Prism Software Incorporated (San Diego, CA, USA). All data points and parameters were expressed as the mean ± SEM. All parameters were calculated from non-linear and linear regressions with the best R^2 values, no less than 93%. The inhibitory concentration of 50% of isozyme (IC50) of each compound was obtained by the interpolation of a normalized variable slope logarithmic curve. The RSA values of the selected compounds were calculated from their IC50 average means following the equation RSA = hMAO − B IC50/Hmao − A IC50(1)

hMAO-B = molecular target: T2, hMAO-B (Homo sapiens, UniProt P27338); assay: MAO-Glow inhibitory potency (IC50); type: biochemical; settings: mean ± SEM, at least two experiments; LDS 4 μM
T2 construct: purchased Sigma-Aldrich Co. (St. Louis, MO, USA)
T2 sequence (P27338 1-520): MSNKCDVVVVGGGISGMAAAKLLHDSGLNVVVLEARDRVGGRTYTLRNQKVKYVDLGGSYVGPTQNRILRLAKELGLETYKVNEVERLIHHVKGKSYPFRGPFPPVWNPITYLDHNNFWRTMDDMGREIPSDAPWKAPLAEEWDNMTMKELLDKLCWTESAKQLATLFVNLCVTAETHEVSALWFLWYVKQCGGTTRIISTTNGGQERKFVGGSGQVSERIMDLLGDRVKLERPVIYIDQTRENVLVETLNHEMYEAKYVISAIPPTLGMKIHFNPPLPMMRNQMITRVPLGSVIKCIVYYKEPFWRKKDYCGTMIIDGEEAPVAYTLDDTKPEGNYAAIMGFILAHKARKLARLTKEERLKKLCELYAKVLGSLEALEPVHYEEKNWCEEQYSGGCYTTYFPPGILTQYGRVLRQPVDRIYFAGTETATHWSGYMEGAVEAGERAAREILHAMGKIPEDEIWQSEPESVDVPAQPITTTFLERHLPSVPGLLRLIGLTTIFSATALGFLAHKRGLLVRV
Method: as §1, §2, §3

LNCaP cells [1] = assay: Antiproliferation dose-response assay for 72 h; type: cell-based; settings: Homo sapiens, mean ± SEM of two experiments, read-out: antiproliferative IC50
Method: For the top effective KKRs, along with TAX, their potency to reduce the affected PCa cell line growth in a dose-dependent manner was determined using the resazurin fluorescence assay. We followed the same protocols and materials used for the antiproliferation screen assays (Section 4.3.2), with the following modifications. The maximum final KKR concentration used was 40 μM. The concentration of 8X of each KKR working solution in 1% HEPES 7.4 was serially diluted in a 3:1 ratio, compound to buffer, respectively. Each data set was collected from ten data points of 3.7–40 μM range. The control had the KKR substituted with buffer. The related IC50 averages were analyzed for the compounds that affected the cell lines the most.

LNCaP cells [2] = assay: cells; type: cell-based, human; settings: for effect on LNCaP proliferation and cell morphology: 20 μM, five days, phase contrast; for viability at 20 µM: Homo sapiens, LNCaP, 120 h, read-out: percentage of treated group compared to the viable control
Method: The morphological alterations of the LNCaP cells were imaged, and their percentage proliferation rate was measured after five-days of incubation. The method of subculture and treatment were similar to our antiproliferation assay, with slight modifications. Briefly, the cells were seeded in transparent flat-bottom 96-well microplates with 10,000 cells/175 μL/well of […] experimental media. Following overnight incubation, 20 μM concentration level (~2 × IC50) for each of KKR11, 20, 7, 2A, 21, and the standard PIRL were added to the cells for a total volume of 200 μL/well and re-incubated for five-days. On the day of imaging, 20X phase-contrast images of lid-covered treated and control cells were captured using an inverted microscope. Resazurin was then added for viability detection, and the imaged cells in the wells were read after 4.5 h on the Bio-Tek Synergy HTX Multi-reader.

MAO isozyme selectivity (hMAO-A) | IC50 (hMAO-A) [nM] | IC50 (hMAO-B) [nM] | IC50 (LNCaP cells [1]) [nM] | hMAO-A relative selectivity (RSA) (hMAO-A) [folds] | Structure (SMILES) | effect on LNCaP proliferation and cell morphology (LNCaP cells [2]) | viability at 20 µM (LNCaP cells [2]) [%]
in favor to inhibit MAO-B | 2940 ± 390 | 790 ± 60 | 9200 |  | O=C(/C=C/c1ccccc1)c1cc(Cl)cc(Cl)c1O [KKR20, (E)-1-(3,5-dichloro-2-hydroxyphenyl)-3-phenylprop-2-en-1-one] | dramatically and differently altered cell morphology with a highly significant loss of proliferation | 26
non-selective MAO-I | 310 ± 30 | 1120 ± 90 | 9500 |  | COc1cc(O)c(C(=O)/C=C/c2ccc(Cl)c(Cl)c2)c(OC)c1 [KKR11, (E)-3-(3,4-dichlorophenyl)-1-(2-hydroxy-4,6-dimethoxyphenyl)prop-2-en-1-one] | dramatically and differently altered cell morphology with a highly significant loss of proliferation | 11
non-selective MAO inhibitory activity | 1030 ± 40 | 200 ± 20 | > 40000 |  | COc1cc(OC)c2c(=O)c(O)c(/C=C/c3cc(OC)c(OC)c(OC)c3)oc2c1 [KKR2A, (E)-3-hydroxy-5,7-dimethoxy-2-(3,4,5-trimethoxystyryl)-4H-chromen-4-one] | neither significant effects on LNCaP proliferation nor apparent changes in cell morphology | 96
highly selective MAO-AIs | 16000 ± 530 | > 800000 | 9100 | > 42105 | O=c1c(O)c(-c2ccccc2)oc2c(Cl)cc(Cl)cc12 [KKR7, 6,8-dichloro-3-hydroxy-2-phenyl-4H-chromen-4-one] | dramatically and differently altered cell morphology with a highly significant loss of proliferation | 25
highly selective MAO-AIs | 19 | > 800000 | > 40000 | > 42105 | O=c1cc(-c2ccccc2)oc2cc(Cl)c(Cl)cc12 [KKR21, 6,7-dichloro-2-phenyl-4H-chromen-4-one] | neither significant effects on LNCaP proliferation nor apparent changes in cell morphology | 94
